Measurements as given in PubChem BioAssay (NCI).
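Results reflect a 48-hour exposure of cells in 96-well plates to compound at five concentrations. GI50 = concentration required for 50% inhibition of growth. TGI marks complete inhibition of growth.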

Experiments:
Test in all cases: NCI tumour cell line growth inhibition, 48 h
786-0 renal = test system: 786-0 renal
A498 renal = test system: A498 renal
A549 NSCLC = test system: A549 NSCLC
ACHN renal = test system: ACHN renal
BT-549 breast = test system: BT-549 breast
CAKI-1 renal = test system: CAKI-1 renal
CCRF-CEM leukemia = test system: CCRF-CEM leukemia
COLO 205 colon = test system: COLO 205 colon
DU-145 prostate = test system: DU-145 prostate
EKVX NSCLC = test system: EKVX NSCLC
HCC-2998 colon = test system: HCC-2998 colon
HCT-116 colon = test system: HCT-116 colon
HCT-15 colon = test system: HCT-15 colon
HL-60(TB) leukemia = test system: HL-60(TB) leukemia
HOP-62 NSCLC = test system: HOP-62 NSCLC
HOP-92 NSCLC = test system: HOP-92 NSCLC
HS 578T breast = test system: HS 578T breast
HT29 colon = test system: HT29 colon
IGROV1 ovarian = test system: IGROV1 ovarian
K-562 leukemia = test system: K-562 leukemia
KM12 colon = test system: KM12 colon
LOX IMVI melanoma = test system: LOX IMVI melanoma
M14 melanoma = test system: M14 melanoma
MALME-3M melanoma = test system: MALME-3M melanoma
MCF7 breast = test system: MCF7 breast
MDA-MB-231 breast = test system: MDA-MB-231 breast
MDA-MB-435 = test system: MDA-MB-435
MOLT-4 leukemia = test system: MOLT-4 leukemia
NCI-H226 lung = test system: NCI-H226 lung
NCI-H23 lung = test system: NCI-H23 lung
NCI-H460 lung = test system: NCI-H460 lung
NCI-H522 lung = test system: NCI-H522 lung
NCI/ADR-RES ovarian = test system: NCI/ADR-RES ovarian
OVCAR-3 ovarian = test system: OVCAR-3 ovarian
OVCAR-4 ovarian = test system: OVCAR-4 ovarian
OVCAR-5 ovarian = test system: OVCAR-5 ovarian
OVCAR-8 ovarian = test system: OVCAR-8 ovarian
PC-3 prostate = test system: PC-3 prostate
RPMI-8226 leukemia = test system: RPMI-8226 leukemia
RXF 393 renal = test system: RXF 393 renal
SF-268 CNS = test system: SF-268 CNS
SF-295 CNS = test system: SF-295 CNS
SF-539 CNS = test system: SF-539 CNS
SK-MEL-2 melanoma = test system: SK-MEL-2 melanoma
SK-MEL-28 melanoma = test system: SK-MEL-28 melanoma
SK-OV-3 ovarian = test system: SK-OV-3 ovarian
SN12C renal = test system: SN12C renal
SNB-19 CNS = test system: SNB-19 CNS
SNB-75 CNS = test system: SNB-75 CNS
SR leukemia = test system: SR leukemia
SW-620 colon = test system: SW-620 colon
T-47D breast = test system: T-47D breast
TK-10 renal = test system: TK-10 renal
U251 CNS = test system: U251 CNS
UACC-257 melanoma = test system: UACC-257 melanoma
UACC-62 melanoma = test system: UACC-62 melanoma
UO-31 renal = test system: UO-31 renal

## CC(=O)O[C@@H]1C(=O)N(c2cnccn2)[C@H]1c1ccccc1[N+](=O)[O-]
786-0 renal
  GI50: 0.551 µM
  TGI: 13.4 µM
A498 renal
  GI50: > 100 µM
  TGI: > 100 µM
A549 NSCLC
  GI50: 0.41 µM
  TGI: > 100 µM
ACHN renal
  GI50: 0.596 µM
  TGI: 17.4 µM
BT-549 breast
  GI50: 0.295 µM
  TGI: 1.24 µM
CAKI-1 renal
  GI50: 0.487 µM
  TGI: 13.3 µM
CCRF-CEM leukemia
  GI50: 0.435 µM
  TGI: > 100 µM
COLO 205 colon
  GI50: 3.02 µM
  TGI: 11.8 µM
DU-145 prostate
  GI50: 0.512 µM
  TGI: > 100 µM
EKVX NSCLC
  GI50: 0.518 µM
  TGI: > 100 µM
HCC-2998 colon
  GI50: 2.1 µM
  TGI: 10.5 µM
HCT-116 colon
  GI50: 0.33 µM
  TGI: 6.77 µM
HCT-15 colon
  GI50: 0.421 µM
  TGI: 14.5 µM
HL-60(TB) leukemia
  GI50: 0.288 µM
HOP-62 NSCLC
  GI50: 1.14 µM
  TGI: 18.3 µM
HOP-92 NSCLC
  GI50: 0.356 µM
  TGI: 10.9 µM
HS 578T breast
  GI50: 0.92 µM
  TGI: > 100 µM
HT29 colon
  GI50: 2.54 µM
  TGI: 6.61 µM
IGROV1 ovarian
  GI50: 0.529 µM
  TGI: 19 µM
K-562 leukemia
  GI50: 0.341 µM
  TGI: > 100 µM
KM12 colon
  GI50: 0.362 µM
  TGI: 19.4 µM
LOX IMVI melanoma
  GI50: 0.283 µM
  TGI: 1.69 µM
M14 melanoma
  GI50: 0.323 µM
  TGI: 5.98 µM
MALME-3M melanoma
  GI50: 0.526 µM
  TGI: 40.9 µM
MCF7 breast
  GI50: 0.352 µM
  TGI: > 64.2 µM
MDA-MB-231 breast
  GI50: 0.351 µM
  TGI: 4.85 µM
MDA-MB-435
  GI50: 0.205 µM
  TGI: 0.456 µM
MOLT-4 leukemia
  GI50: 0.452 µM
  TGI: > 100 µM
NCI-H226 lung
  GI50: 0.527 µM
  TGI: 9.4 µM
NCI-H23 lung
  GI50: 0.369 µM
  TGI: 13 µM
NCI-H460 lung
  GI50: 0.346 µM
  TGI: 10.8 µM
NCI-H522 lung
  GI50: 0.184 µM
  TGI: 0.436 µM
NCI/ADR-RES ovarian
  GI50: 0.311 µM
  TGI: 7.51 µM
OVCAR-3 ovarian
  GI50: 0.288 µM
  TGI: 3.3 µM
OVCAR-4 ovarian
  GI50: 0.72 µM
  TGI: > 100 µM
OVCAR-5 ovarian
  GI50: 0.55 µM
  TGI: 16.6 µM
OVCAR-8 ovarian
  GI50: 0.299 µM
  TGI: 0.946 µM
PC-3 prostate
  GI50: 0.582 µM
  TGI: 25.7 µM
RPMI-8226 leukemia
  GI50: 0.384 µM
  TGI: 22.8 µM
RXF 393 renal
  GI50: 0.52 µM
  TGI: 3.56 µM
SF-268 CNS
  GI50: 0.566 µM
  TGI: > 69.5 µM
SF-295 CNS
  GI50: 0.865 µM
  TGI: 12.4 µM
SF-539 CNS
  GI50: 0.234 µM
  TGI: 0.575 µM
SK-MEL-2 melanoma
  GI50: 1.96 µM
  TGI: > 100 µM
SK-MEL-28 melanoma
  GI50: 0.926 µM
  TGI: 27.4 µM
SK-OV-3 ovarian
  GI50: 0.781 µM
  TGI: > 100 µM
SN12C renal
  GI50: 0.432 µM
  TGI: 13.8 µM
SNB-19 CNS
  GI50: 1.86 µM
  TGI: > 100 µM
SNB-75 CNS
  GI50: 0.357 µM
  TGI: 3.1 µM
SR leukemia
  GI50: 0.35 µM
  TGI: > 100 µM
SW-620 colon
  GI50: 0.396 µM
  TGI: 19.3 µM
T-47D breast
  GI50: 18.5 µM
  TGI: > 100 µM
TK-10 renal
  GI50: 14 µM
  TGI: 49.9 µM
U251 CNS
  GI50: 0.366 µM
  TGI: 10.6 µM
UACC-257 melanoma
  GI50: 0.992 µM
  TGI: 63 µM
UACC-62 melanoma
  GI50: 0.327 µM
  TGI: 18.8 µM
UO-31 renal
  GI50: 0.616 µM
  TGI: 16.3 µM
